Measured values from ChEMBL document CHEMBL1136459, “New antibacterial tetrahydro-4(2H)-thiopyran and thiomorpholine S-oxide and S,S-dioxide phenyloxazolidinones” (Bioorg Med Chem Lett, 2003).
Converted amounts (≈) assume the structure as drawn. Blank lines part the entries; values can stand above or below the compound they belong to.

Legend:
[1] = tested on: Haemophilus influenzae; experiment: In vitro antibacterial activity against Haemophilia influenzae strains ATCC 30063 and ATCC 31517; format: functional
[2] = tested on: Moraxella catarrhalis; experiment: In vitro antibacterial activity against Moraxella catarrhalis strains 30607 and 30603 (MC).; format: functional
[3] = tested on: Staphylococcus aureus; experiment: In vitro antibacterial activity against Staphylococcus aureus strains UC12673, UC9213, ATCC 29213, and UC9271 (SA); range is 16-32; format: functional
[4] = tested on: Staphylococcus epidermidis; experiment: In vitro antibacterial activity against Staphylococcus epidermidis strains UC12084, 30031, and CDC-CNS90 (SE); format: functional
[5] = tested on: Staphylococcus aureus; experiment: In vitro antibacterial activity against linezolid-resistant Staphylococcus aureus ATCC 29213 (LRSA).; format: functional
[6] = tested on: Enterococcus faecium; experiment: In vitro antibacterial activity against vancomycin-resistant Enterococcus faecium UC12712 (VRE).
[7] = tested on: Streptococcus pneumoniae; experiment: In vitro antibacterial activity against Streptococcus pneumoniae strains ATCC 6305 and 31573 (SPN); range is 2-4
[8] = tested on: Moraxella catarrhalis; experiment: In vitro antibacterial activity against Moraxella catarrhalis strains 30607 and 30603 (MC); range is 8-16; format: functional
[9] = tested on: Staphylococcus aureus; experiment: In vitro antibacterial activity against Staphylococcus aureus strains UC12673, UC9213, ATCC 29213, and UC9271 (SA); format: functional
[10] = tested on: Staphylococcus epidermidis; experiment: In vitro antibacterial activity against Staphylococcus epidermidis strains UC12084, 30031, and CDC-CNS90 (SE); range is 0.5-1; format: functional
[11] = tested on: Streptococcus pneumoniae; experiment: In vitro antibacterial activity against Streptococcus pneumoniae strains ATCC6305 and 31573 (SPN).
[12] = tested on: Streptococcus pneumoniae; experiment: In vitro antibacterial activity against Streptococcus pneumoniae strains ATCC 6305 and 31573 (SPN).; format: functional
[13] = tested on: Haemophilus influenzae; experiment: In vitro antibacterial activity against Haemophilia influenzae strains 30063 and ATCC 31517 (HI); range is 32-64; format: functional
[14] = tested on: Moraxella catarrhalis; experiment: In vitro antibacterial activity against Moraxella catarrhalis strains 30607 and 30603 (MC); range is 16-32; format: functional
[15] = tested on: Staphylococcus aureus; experiment: In vitro antibacterial activity against Staphylococcus aureus strains UC12673, UC9213, ATCC 29213, and UC9271 (SA); range is 4-8; format: functional
[16] = tested on: Moraxella catarrhalis; experiment: In vitro antibacterial activity against Moraxella catarrhalis strains 30607 and 30603 (MC); range is 32->64; format: functional
[17] = tested on: Staphylococcus epidermidis; experiment: In vitro antibacterial activity against Staphylococcus epidermidis strains UC12084, 30031, and CDC-CNS90 (SE); range is 32-64; format: functional
[18] = tested on: Haemophilus influenzae; experiment: In vitro antibacterial activity against Haemophilia influenzae strains 30063 and ATCC 31517 (HI); range is 4-16; format: functional
[19] = tested on: Staphylococcus epidermidis; experiment: In vitro antibacterial activity against Staphylococcus epidermidis strains UC12084, 30031, and CDC-CNS90 (SE); range is 1-2; format: functional
[20] = tested on: Staphylococcus aureus; experiment: In vitro antibacterial activity against Staphylococcus aureus strains UC12673, UC9213, ATCC 29213, and UC9271 (SA); range is 4-16; format: functional
[21] = tested on: Haemophilus influenzae; experiment: In vitro antibacterial activity against Haemophilia influenzae strains 30063 and ATCC 31517 (HI); range is 16-32; format: functional
[22] = tested on: Staphylococcus aureus; experiment: In vitro antibacterial activity against Staphylococcus aureus strains UC12673, UC9213, ATCC 29213, and UC9271 (SA); range is 8-16; format: functional
[23] = tested on: Staphylococcus epidermidis; experiment: In vitro antibacterial activity against Staphylococcus epidermidis strains UC12084, 30031, and CDC-CNS90 (SE); range is 2-4; format: functional
[24] = tested on: Haemophilus influenzae; experiment: In vitro antibacterial activity against Haemophilia influenzae strains 30063 and ATCC 31517 (HI); range is 8-32; format: functional
[25] = tested on: Haemophilus influenzae; experiment: In vitro antibacterial activity against Haemophilia influenzae strains 30063 and ATCC 31517 (HI); range is 4-8; format: functional
[26] = tested on: Streptococcus pneumoniae; experiment: In vitro antibacterial activity against Streptococcus pneumoniae strains ATCC 6305 and 31573 (SPN); range is 0.5-1
[27] = tested on: Staphylococcus aureus; experiment: In vitro antibacterial activity against Staphylococcus aureus strains UC12673, UC9213, ATCC 29213, and UC9271 (SA); range is 8-32; format: functional

SMILES: O=C(CO)NC[C@H]1CN(c2ccc(C3CC[S+]([O-])CC3)c(F)c2)C(=O)O1 (stereo partly specified)
MIC [1]: 8 µg/mL (≈ 20.8 µM)
MIC [2]: 8 µg/mL (≈ 20.8 µM)
MIC [3]: 16 µg/mL (≈ 41.6 µM)
MIC [4]: 4 µg/mL (≈ 10.4 µM)
MIC [5]: 64 µg/mL (≈ 166 µM)
MIC [6]: 8 µg/mL (≈ 20.8 µM)
MIC [7]: 2 µg/mL (≈ 5.2 µM)

SMILES: CC(=O)NC[C@H]1CN(c2ccc(C3CC[S+]([O-])CC3)c(F)c2)C(=O)O1 (stereo partly specified)
MIC [1]: 8 µg/mL (≈ 21.7 µM)
MIC [8]: > 8 µg/mL
MIC [9]: 4 µg/mL (≈ 10.9 µM)
MIC [10]: 0.5 µg/mL (≈ 1.36 µM)
MIC [5]: 64 µg/mL (≈ 174 µM)
MIC [6]: 2 µg/mL (≈ 5.43 µM)
MIC [11]: 0.5 µg/mL (≈ 1.36 µM)

SMILES: O=C(NC[C@H]1CN(c2ccc(N3CC[S+]([O-])CC3)c(F)c2)C(=O)O1)C1CC1
MIC [1]: 32 µg/mL (≈ 80.9 µM)
MIC [8]: 8 µg/mL (≈ 20.2 µM)
MIC [3]: 16 µg/mL (≈ 40.5 µM)
MIC [4]: 4 µg/mL (≈ 10.1 µM)
MIC [5]: 64 µg/mL (≈ 162 µM)
MIC [6]: 4 µg/mL (≈ 10.1 µM)

MIC [1]: > 64 µg/mL
MIC [2]: > 64 µg/mL
MIC [9]: > 64 µg/mL
MIC [4]: 2 µg/mL (≈ 3.88 µM)
MIC [12]: > 64 µg/mL
SMILES: O=C(NC[C@H]1CN(c2ccc(C3CCS(=O)(=O)CC3)c(F)c2)C(=O)O1)c1ccc(Cl)c(Cl)c1

SMILES: O=C(/C=C/c1ccc(F)cc1)NC[C@H]1CN(c2ccc(N3CC[S+]([O-])CC3)c(F)c2)C(=O)O1
MIC [13]: 32 µg/mL (≈ 67.3 µM)
MIC [14]: 16 µg/mL (≈ 33.6 µM)
MIC [4]: 2 µg/mL (≈ 4.21 µM)
MIC [15]: 4 µg/mL (≈ 8.41 µM)
MIC [5]: 32 µg/mL (≈ 67.3 µM)
MIC [6]: 4 µg/mL (≈ 8.41 µM)

SMILES: O=C(NC[C@H]1CN(c2ccc(N3CC[S+]([O-])CC3)c(F)c2)C(=O)O1)c1csnn1
MIC [1]: 64 µg/mL (≈ 146 µM)
MIC [16]: 32 µg/mL (≈ 72.8 µM)
MIC [3]: 16 µg/mL (≈ 36.4 µM)
MIC [4]: 8 µg/mL (≈ 18.2 µM)
MIC [5]: > 64 µg/mL
MIC [6]: 16 µg/mL (≈ 36.4 µM)

SMILES: COc1ccc(OC)c(C(=O)NC[C@H]2CN(c3ccc(N4CC[S+]([O-])CC4)c(F)c3)C(=O)O2)c1
MIC [1]: > 64 µg/mL
MIC [2]: > 64 µg/mL
MIC [9]: ≥ 64 µg/mL
MIC [17]: 32 µg/mL (≈ 65.1 µM)
MIC [5]: > 64 µg/mL
MIC [6]: > 64 µg/mL

SMILES: O=C(NC[C@H]1CN(c2ccc(C3CCS(=O)(=O)CC3)c(F)c2)C(=O)O1)C(F)F
MIC [18]: > 4 µg/mL
MIC [2]: 8 µg/mL (≈ 19 µM)
MIC [19]: 1 µg/mL (≈ 2.38 µM)
MIC [20]: 4 µg/mL (≈ 9.51 µM)
MIC [5]: 32 µg/mL (≈ 76.1 µM)
MIC [6]: 4 µg/mL (≈ 9.51 µM)
MIC [11]: 1 µg/mL (≈ 2.38 µM)

SMILES: O=C(CC(F)(F)F)NC[C@H]1CN(c2ccc(N3CCS(=O)(=O)CC3)c(F)c2)C(=O)O1
MIC [21]: 16 µg/mL (≈ 35.3 µM)
MIC [2]: 16 µg/mL (≈ 35.3 µM)
MIC [4]: 4 µg/mL (≈ 8.82 µM)
MIC [22]: 8 µg/mL (≈ 17.6 µM)
MIC [5]: > 64 µg/mL
MIC [6]: 4 µg/mL (≈ 8.82 µM)

SMILES: O=C1O[C@@H](CNC(=O)C(F)(F)F)CN1c1ccc(C2CC[S+]([O-])CC2)c(F)c1 (stereo partly specified)
MIC [2]: 8 µg/mL (≈ 18.9 µM)
MIC [9]: 8 µg/mL (≈ 18.9 µM)
MIC [23]: 2 µg/mL (≈ 4.73 µM)
MIC [24]: 8 µg/mL (≈ 18.9 µM)
MIC [5]: 32 µg/mL (≈ 75.8 µM)
MIC [6]: 4 µg/mL (≈ 9.47 µM)

SMILES: CSCC(=O)NC[C@H]1CN(c2ccc(C3CCS(=O)(=O)CC3)c(F)c2)C(=O)O1
MIC [2]: 8 µg/mL (≈ 18.6 µM)
MIC [4]: 2 µg/mL (≈ 4.65 µM)
MIC [15]: 4 µg/mL (≈ 9.29 µM)
MIC [24]: 8 µg/mL (≈ 18.6 µM)
MIC [5]: 64 µg/mL (≈ 149 µM)
MIC [6]: 4 µg/mL (≈ 9.29 µM)

SMILES: CC(=O)NC[C@H]1CN(c2ccc(N3CCS(=O)(=O)CC3)c(F)c2)C(=O)O1
MIC [25]: 4 µg/mL (≈ 10.4 µM)
MIC [2]: 4 µg/mL (≈ 10.4 µM)
MIC [9]: 4 µg/mL (≈ 10.4 µM)
MIC [4]: 1 µg/mL (≈ 2.59 µM)
MIC [5]: 64 µg/mL (≈ 166 µM)
MIC [6]: 2 µg/mL (≈ 5.19 µM)
MIC [26]: 0.5 µg/mL (≈ 1.3 µM)

SMILES: O=C1O[C@@H](CNC(=O)C(F)(F)F)CN1c1ccc(C2CCS(=O)(=O)CC2)c(F)c1
MIC [2]: 8 µg/mL (≈ 18.2 µM)
MIC [23]: 2 µg/mL (≈ 4.56 µM)
MIC [24]: > 8 µg/mL
MIC [27]: 8 µg/mL (≈ 18.2 µM)
MIC [5]: 64 µg/mL (≈ 146 µM)
MIC [6]: 8 µg/mL (≈ 18.2 µM)
